# In patent publication US20070003542A1, “Methods for treating diseases or conditions with peptide constructs” (priority 2002, published 2007):
# “And” between values parts separate entries of the source, which are not always exact repeats. Equal values may be shown once.
# Experiments:
# B16 melanoma = assay: allogeneic murine B16 melanoma protection model; format: in vivo, mice; settings: in combination with allogeneic K1735 cells; B16 challenge; two experiments
# Protocol: In particular, C57/b16 (H2^b) mice are vaccinated with the allogeneic melanoma K1735 (H2^k) at least twice on weekly intervals and then challenged with syngeneic B16 (H2^b) tumors. […] This is clear evidence of cross-priming and the existence of shared antigens.
# Peptide constructs were prepared using as T cell binding ligand, either derG (SEQ ID NO. 7), Peptide G (SEQ ID NO. 5). The peptides are synthesized using the FMOC procedure and a double coupling protocol for the first 8 residues. Usually the peptide is prepared with the carboxyl terminus as an amide form. All of the peptides are purified using preparative HPLC, and analyzed by an analytical HPLC, amino acid analysis and mass spectrophotometer. The peptides are greater than 95%, usually greater than 98%, pure by HPLC criteria. The dry peptides are stored in vials with desiccant at −8° C. • 1) Eight groups of seven mice were injected with 200 μl of the vaccine as shown in FIG. 1. • 2) This was repeated after 7 days. • 3) A further 7 days later, mice were challenged with 200 μl saline containing 5×10^4 live B16 on the contralateral side to vaccination. • 4) Mice were sacrificed when tumor size exceeded 15 mm in either axis.
# In order more precisely model the use of clinical allogeneic vaccines, a frozen vaccine was used in the mouse model wherein K-1735 cells were thawed just prior to use. […]
# [1] = tested on: Plasmodium yoelii sporozoites; assay: malaria protection assay, sporozoite challenge of immunized mice; format: in vivo; settings: for Protection: 25 μg 2 times at 3 week intervals in TiterMax, 100 sporozoites
# Protocol: In particular, mice were immunized twice at three week intervals with 25 μg of the subunits (W or G) used to make the L.E.A.P.S.™ construct (GW), and were challenged with 200 plasmodium yoelii sporozoites 2 weeks after the second immunization. Protective efficacy was evaluated by thin blood smears every other day starting 4 days after the challenge. Mice were considered protected if no blood stage parasites were detectable by 14 days after challenge.
# (§1) Next using another antigen with B and T cell activity two inbred strains of mice, (A/J and Balb/c) were immunized twice at three week intervals with the L.E.A.P.S.™ constructs (J-GF/SF or der-SF/GF) or with the subunits (SF/GF, J and derG) used to make heteroconjugated peptides, and were challenged with 100 Plasmodium yoelii sporozoites 2 weeks after the second immunization and protection efficacy evaluated as before. Four days before challenge, serum was collected from individual animals, pooled and analyzed immediately for antibody to SF/GF peptide sera collected from immunized and protected mice 15 days post challenge were pooled and used for IFN-γ determination by ELISA procedures.
# Groups of 10 mice were pre-treated 2 times at 3 week intervals with 25 μg of derG in TiterMax™ adjuvant and challenged with 100 Plasmodium yoelii sporozoites. Protective efficacy was evaluated as described above.
# SF/GF peptide = assay: serum antibody ELISA to SF/GF peptide; format: in vivo, mice; design: scale not given here; settings: serum pool four days before challenge
# Text: as §1
# IFN-γ = assay: serum IFN-γ determination by ELISA; format: in vivo; settings: A/J mice, serum pool 15 days post challenge
# Text: as §1
# HSV-1 = assay: scarification zosteriform spread model of HSV infection; format: in vivo; settings: A/J mice
# Protocol: Groups of 4- to 6-wk old female A/J mice were subcutaneously inoculated once with 25 μg of the derG peptide emulsified in ISA51 adjuvant at a 1:1 ratio before challenge unless otherwise specified. Untreated mice and mice treated with adjuvant served as additional controls. The mice were challenged as specified in methods well known to those of ordinary skill in the art and as exemplified by Goel et al. (“The Ability of an HSV Strain to Initiate Zosteriform Spread Correlates with its Neuroinvasive Disease Potential”, Arch Virol 147:763-773 (2002)) and Goel et al., (“A Modification Of The Epidermal Scarification Model Of Herpes Simplex Virus Infection To Achieve A Reproducible And Uniform Progression Of Disease”, J Virol Meth 106; 153-8 (2002)).
# In particular, hair is removed by shaving and then Nair® is applied. Twenty-fours later the depilated back of a mouse is scratched or abraded to expose the susceptible epidermal layer and virus rubbed in. To provide more detail, 10 μl of a virus suspension containing 6×10^4 plaque forming units was pipetted onto a 0.5 cm square of skin on mouse dorsal surface, which was previously abraded using sand paper glued on a pencil eraser. In untreated animals, the primary lesion developed at the inoculation site within 3 days and spread to the associated root, followed by anterograde transport and formation of secondary lesions at sites along the dermatome of the nerves within 5 days. In severe cases, animals died within 8 days post viral challenge. Disease progression and survival were monitored for at least 10 days. […] The progression and the severity of the lesions was scored from 0 to 7 (death). This model allows for discrimination of the disease progression (local site, neuronal spread, extent of lesion at the dermatome, death) at which the immune system blocks viral progression. In some experiments modifications in the timing, route of administration and mouse strain were evaluated for efficacy of CEL-1000.
# [2] = A/J mice, dose 1.25 μg (Table 6)
# [3] = A/J mice, dose 2.5 μg (Table 6)
# [4] = A/J mice, dose 5 μg, 100 sporozoites (Table 5)
# [5] = A/J mice, dose 25 μg, 100 sporozoites (Table 5)
# [6] = Balb/c mice, dose 25 μg, 100 sporozoites (Table 5)
Sequence,"Protection (%) ([1]; A/J mice, dose 5 μg (Table 6))","Protection (%) [1, 4]","Protection (%) [1, 5]","Protection (%) [1, 6]","Antibody EL1SA A490* (SF/GF peptide; A/J mice, dose 5 μg)","Antibody EL1SA A490* (SF/GF peptide; A/J mice, dose 25 μg)","Antibody EL1SA A490* (SF/GF peptide; Balb/c mice, dose 25 μg)","Protection (%) ([1]; A/J mice, dose 10 μg (Table 6))",also measured
"DGQEEKAGVVSTGLIGGG [derG, modified fragment from MHC II β-chain (a.a. 135-149)]",100%,100%,100%,0%,2,2,4,–,"Protection (B16 melanoma): 30% and 40%; Protection ([1]; A/J mice): 80; Protection (%) [1, 2]: 60%; Protection Protected/Tested [1, 2]: 6/10; Protection (%) [1, 3]: 80%; Protection Protected/Tested [1, 3]: 9/10; Protection Protected/Tested ([1]; A/J mice, dose 5 μg (Table 6)): 10/10; Protection Protected/Tested [1, 4]: 10/10; Protection Protected/Tested [1, 5]: 10/10; Protection ([1]; BALB/c mice): 0; Protection Protected/Tested [1, 6]: 0/10; Protection ([1]; C3H mice): 40; Protection ([1]; CAF1 hybrid mice): 40; IFN-γ serum (IFN-γ; dose 5 μg): 40,000 pg/mL; IFN-γ serum (IFN-γ; dose 25 μg): 18,000 pg/mL; protection from lethal HSV-1 challenge (HSV-1): protects A/J mice from lethal HSV-1 challenge; Protection (HSV-1; intramuscularly 2 weeks prior to challenge, without adjuvant, in aqueous solution): 100%; onset of symptoms, morbidity and mortality, zosteriform spread (HSV-1; single dose of 25 μg, timing of administration (FIG. 3)): delay in onset of symptoms"
SFPMNEESPLGFSPEEMEAVASKFR [GF/SF],10%,30%,100%,–,"8,443","19,970",–,50%,–
"DLLKNGERIEKVEGGG [J, short fragment from β2-microglobulin (a.a. 38-50)]",–,10%,10%,0%,1,2,2,10%,–
DGQEEKAGVVSTGLIGGGSFPMNEESPLGFSPEEMEAVASKFR [derG-GF/SF],10%,80%,100%,0%,"1,933","10,694","17,019",–,–
DLLKNGERIEKVEGGG SFPMNEESPLGFSPEEMEAVASKFR [J-GF/SF],–,10%,100%,0%,"1,103","6,121","11,454",56%,–
